Values of other authors as cited in patent US4916163A, “Spray-dried lactose formulation of micronized glyburide” (The Upjohn Company, priority 1985, dated 1990).

System: Type II (adult-onset) diabetes mellitus
Conditions: in words, background

COc1ccc(Cl)cc1C(=O)NCCc1ccc(S(=O)(=O)NC(=O)NC2CCCCC2)cc1 [glyburide, N-[4-(β-[2-methoxy-5-chloro-benzamido]-ethyl)-benzenesulfonyl]-N'-cyclohexyl-urea]
Reduction of serum glucose concentrations: effective in reducing serum glucose concentrations
